Assay results taken from PubChem BioAssay (NCI).
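Briefly, cells in 96-well plates were exposed to five compound concentrations for 48 h, and endpoints were estimated by linear interpolation. TGI: concentration producing complete growth inhibition.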

Columns and labels:
Assay in all cases: DTP human tumour cell line panel, 48 h
M14 melanoma = system: M14 melanoma
HT29 colon = system: HT29 colon
SF-268 CNS = system: SF-268 CNS
HOP-92 NSCLC = system: HOP-92 NSCLC
HL-60(TB) leukemia = system: HL-60(TB) leukemia
HCC-2998 colon = system: HCC-2998 colon
SK-MEL-2 melanoma = system: SK-MEL-2 melanoma
NCI-H460 lung = system: NCI-H460 lung
NCI-H23 lung = system: NCI-H23 lung
A498 renal = system: A498 renal
ACHN renal = system: ACHN renal
786-0 renal = system: 786-0 renal
SR leukemia = system: SR leukemia
COLO 205 colon = system: COLO 205 colon
SF-295 CNS = system: SF-295 CNS
RPMI-8226 leukemia = system: RPMI-8226 leukemia
EKVX NSCLC = system: EKVX NSCLC
UO-31 renal = system: UO-31 renal
SW-620 colon = system: SW-620 colon
LOX IMVI melanoma = system: LOX IMVI melanoma
DU-145 prostate = system: DU-145 prostate
UACC-62 melanoma = system: UACC-62 melanoma
BT-549 breast = system: BT-549 breast
HS 578T breast = system: HS 578T breast
NCI-H226 lung = system: NCI-H226 lung
TK-10 renal = system: TK-10 renal
OVCAR-8 ovarian = system: OVCAR-8 ovarian
RXF 393 renal = system: RXF 393 renal
SK-MEL-28 melanoma = system: SK-MEL-28 melanoma
NCI-H522 lung = system: NCI-H522 lung
OVCAR-4 ovarian = system: OVCAR-4 ovarian
MALME-3M melanoma = system: MALME-3M melanoma
MOLT-4 leukemia = system: MOLT-4 leukemia
OVCAR-3 ovarian = system: OVCAR-3 ovarian
OVCAR-5 ovarian = system: OVCAR-5 ovarian
UACC-257 melanoma = system: UACC-257 melanoma
CAKI-1 renal = system: CAKI-1 renal
HCT-15 colon = system: HCT-15 colon
KM12 colon = system: KM12 colon
T-47D breast = system: T-47D breast
U251 CNS = system: U251 CNS
PC-3 prostate = system: PC-3 prostate
HCT-116 colon = system: HCT-116 colon
MCF7 breast = system: MCF7 breast
SNB-75 CNS = system: SNB-75 CNS
SF-539 CNS = system: SF-539 CNS
MDA-MB-231 breast = system: MDA-MB-231 breast
SK-OV-3 ovarian = system: SK-OV-3 ovarian
SNB-19 CNS = system: SNB-19 CNS
K-562 leukemia = system: K-562 leukemia
SN12C renal = system: SN12C renal
MDA-MB-435 = system: MDA-MB-435
A549 NSCLC = system: A549 NSCLC
SK-MEL-5 melanoma = system: SK-MEL-5 melanoma
IGROV1 ovarian = system: IGROV1 ovarian
HOP-62 NSCLC = system: HOP-62 NSCLC
NCI/ADR-RES ovarian = system: NCI/ADR-RES ovarian
MDA-N = system: MDA-N
CCRF-CEM leukemia = system: CCRF-CEM leukemia

`CCOC(=O)c1c2c(n3ccccc13)C(=O)c1ccccc1C2=O` gave a TGI (M14 melanoma) of over 100 µM, a TGI (HT29 colon) of over 100 µM and a TGI (SF-268 CNS) of over 100 µM. The TGI (HOP-92 NSCLC) was over 100 µM, the TGI (HL-60(TB) leukemia) was over 100 µM and the TGI (HCC-2998 colon) was 7.59 µM. The TGI (SK-MEL-2 melanoma) was over 100 µM, the TGI (NCI-H460 lung) was 15.6 µM and the TGI (NCI-H23 lung) was over 100 µM. For the same compound, the TGI (A498 renal) was over 100 µM, the TGI (ACHN renal) was over 100 µM and the TGI (786-0 renal) was over 100 µM. The TGI (SR leukemia) was over 100 µM, the TGI (COLO 205 colon) was over 100 µM and the TGI (SF-295 CNS) was over 100 µM. The TGI (RPMI-8226 leukemia) was over 100 µM, the TGI (EKVX NSCLC) was over 100 µM and the TGI (UO-31 renal) was over 100 µM. The TGI (SW-620 colon) was over 100 µM, the TGI (LOX IMVI melanoma) was over 100 µM and the TGI (DU-145 prostate) was over 100 µM. It also gave a TGI (UACC-62 melanoma) of over 100 µM, a TGI (BT-549 breast) of over 100 µM and a TGI (HS 578T breast) of over 100 µM. It also gave a TGI (NCI-H226 lung) of over 100 µM, a TGI (TK-10 renal) of over 100 µM and a TGI (OVCAR-8 ovarian) of over 100 µM. For the same compound, the TGI (RXF 393 renal) was over 100 µM, the TGI (SK-MEL-28 melanoma) was over 100 µM and the TGI (NCI-H522 lung) was over 100 µM. The TGI (OVCAR-4 ovarian) was over 100 µM, the TGI (MALME-3M melanoma) was over 100 µM and the TGI (MOLT-4 leukemia) was over 100 µM. The TGI (OVCAR-3 ovarian) was over 100 µM, the TGI (OVCAR-5 ovarian) was over 100 µM and the TGI (UACC-257 melanoma) was over 100 µM. For the same compound, the TGI (CAKI-1 renal) was over 100 µM, the TGI (HCT-15 colon) was over 100 µM and the TGI (KM12 colon) was over 100 µM. It also gave a TGI (T-47D breast) of over 100 µM, a TGI (U251 CNS) of over 100 µM and a TGI (PC-3 prostate) of over 100 µM. For the same compound, the TGI (HCT-116 colon) was over 100 µM, the TGI (MCF7 breast) was over 100 µM and the TGI (SNB-75 CNS) was 74.6 µM. For the same compound, the TGI (SF-539 CNS) was over 100 µM, the TGI (MDA-MB-231 breast) was over 100 µM and the TGI (SK-OV-3 ovarian) was over 100 µM. It also gave a TGI (SNB-19 CNS) of over 100 µM, a TGI (K-562 leukemia) of over 100 µM and a TGI (SN12C renal) of over 100 µM. The TGI (MDA-MB-435) was over 100 µM, the TGI (A549 NSCLC) was 43.2 µM and the TGI (SK-MEL-5 melanoma) was over 100 µM. It also gave a TGI (IGROV1 ovarian) of over 100 µM, a TGI (HOP-62 NSCLC) of over 100 µM and a TGI (NCI/ADR-RES ovarian) of over 100 µM. The TGI (MDA-N) was over 100 µM.

In the case of `CC1OC(O[C@@H]2OC=C(C=O)[C@@]3(O)CC[C@H](C)[C@@H]23)C(O)C(O)C1O` (stereo partly specified), the TGI (M14 melanoma) is reported as over 100 µM, the TGI (HT29 colon) is reported as over 100 µM and the TGI (SF-268 CNS) is reported as over 100 µM. The TGI (HOP-92 NSCLC) was over 100 µM, the TGI (HL-60(TB) leukemia) was over 100 µM and the TGI (HCC-2998 colon) was over 100 µM. The TGI (SK-MEL-2 melanoma) was over 100 µM, the TGI (NCI-H460 lung) was over 100 µM and the TGI (NCI-H23 lung) was over 100 µM. The TGI (A498 renal) was over 100 µM, the TGI (ACHN renal) was over 100 µM and the TGI (786-0 renal) was over 100 µM. For the same compound, the TGI (SR leukemia) was over 100 µM, the TGI (COLO 205 colon) was over 100 µM and the TGI (SF-295 CNS) was over 100 µM. It also gave a TGI (RPMI-8226 leukemia) of over 100 µM, a TGI (EKVX NSCLC) of over 100 µM and a TGI (UO-31 renal) of over 100 µM. The TGI (SW-620 colon) was over 100 µM, the TGI (LOX IMVI melanoma) was over 100 µM and the TGI (DU-145 prostate) was over 100 µM. It also gave a TGI (UACC-62 melanoma) of over 100 µM, a TGI (BT-549 breast) of over 100 µM and a TGI (HS 578T breast) of over 100 µM. The TGI (NCI-H226 lung) was over 100 µM, the TGI (TK-10 renal) was over 100 µM and the TGI (OVCAR-8 ovarian) was over 100 µM. For the same compound, the TGI (RXF 393 renal) was over 100 µM, the TGI (SK-MEL-28 melanoma) was over 100 µM and the TGI (NCI-H522 lung) was over 100 µM. For the same compound, the TGI (OVCAR-4 ovarian) was over 100 µM, the TGI (MALME-3M melanoma) was over 100 µM and the TGI (MOLT-4 leukemia) was over 100 µM. It also gave a TGI (OVCAR-3 ovarian) of over 100 µM, a TGI (OVCAR-5 ovarian) of over 100 µM and a TGI (UACC-257 melanoma) of over 100 µM. For the same compound, the TGI (CCRF-CEM leukemia) was over 100 µM, the TGI (CAKI-1 renal) was over 100 µM and the TGI (HCT-15 colon) was over 100 µM. It also gave a TGI (KM12 colon) of over 100 µM, a TGI (T-47D breast) of over 100 µM and a TGI (U251 CNS) of over 100 µM. For the same compound, the TGI (PC-3 prostate) was over 100 µM, the TGI (HCT-116 colon) was over 100 µM and the TGI (MCF7 breast) was over 100 µM. The TGI (SNB-75 CNS) was over 100 µM, the TGI (SF-539 CNS) was over 100 µM and the TGI (MDA-MB-231 breast) was over 100 µM. It also gave a TGI (SK-OV-3 ovarian) of over 100 µM, a TGI (SNB-19 CNS) of over 100 µM and a TGI (K-562 leukemia) of over 100 µM. For the same compound, the TGI (SN12C renal) was over 100 µM, the TGI (MDA-MB-435) was over 100 µM and the TGI (A549 NSCLC) was over 100 µM. For the same compound, the TGI (SK-MEL-5 melanoma) was over 100 µM, the TGI (IGROV1 ovarian) was over 100 µM and the TGI (HOP-62 NSCLC) was over 100 µM. The TGI (NCI/ADR-RES ovarian) was over 100 µM and the TGI (MDA-N) was over 100 µM.

Work on `CN(CC1(CO)CCC1)c1cc(Cl)nc(N)n1` yielded a TGI (M14 melanoma) of over 100 µM, a TGI (HT29 colon) of over 100 µM and a TGI (SF-268 CNS) of over 100 µM. The TGI (HOP-92 NSCLC) was over 100 µM, the TGI (HL-60(TB) leukemia) was over 100 µM and the TGI (HCC-2998 colon) was over 100 µM. For the same compound, the TGI (SK-MEL-2 melanoma) was over 100 µM, the TGI (NCI-H460 lung) was over 100 µM and the TGI (NCI-H23 lung) was over 100 µM. It also gave a TGI (A498 renal) of over 100 µM, a TGI (ACHN renal) of over 100 µM and a TGI (786-0 renal) of over 100 µM. For the same compound, the TGI (SR leukemia) was over 100 µM, the TGI (COLO 205 colon) was over 100 µM and the TGI (SF-295 CNS) was over 100 µM. It also gave a TGI (RPMI-8226 leukemia) of over 100 µM, a TGI (EKVX NSCLC) of over 100 µM and a TGI (UO-31 renal) of over 100 µM. The TGI (SW-620 colon) was over 100 µM, the TGI (LOX IMVI melanoma) was over 100 µM and the TGI (DU-145 prostate) was over 100 µM. For the same compound, the TGI (UACC-62 melanoma) was over 100 µM, the TGI (BT-549 breast) was over 100 µM and the TGI (HS 578T breast) was over 100 µM. The TGI (NCI-H226 lung) was over 100 µM, the TGI (TK-10 renal) was over 100 µM and the TGI (OVCAR-8 ovarian) was over 100 µM. It also gave a TGI (RXF 393 renal) of over 100 µM, a TGI (SK-MEL-28 melanoma) of over 100 µM and a TGI (NCI-H522 lung) of over 100 µM. It also gave a TGI (OVCAR-4 ovarian) of over 100 µM, a TGI (MALME-3M melanoma) of over 100 µM and a TGI (MOLT-4 leukemia) of over 100 µM. The TGI (OVCAR-3 ovarian) was over 100 µM, the TGI (OVCAR-5 ovarian) was over 100 µM and the TGI (UACC-257 melanoma) was over 100 µM. The TGI (CCRF-CEM leukemia) was over 100 µM, the TGI (CAKI-1 renal) was over 100 µM and the TGI (HCT-15 colon) was over 100 µM. It also gave a TGI (KM12 colon) of over 100 µM, a TGI (T-47D breast) of over 100 µM and a TGI (U251 CNS) of over 100 µM. It also gave a TGI (PC-3 prostate) of over 100 µM, a TGI (HCT-116 colon) of over 100 µM and a TGI (MCF7 breast) of over 100 µM. It also gave a TGI (SNB-75 CNS) of over 100 µM, a TGI (SF-539 CNS) of over 100 µM and a TGI (MDA-MB-231 breast) of over 100 µM. For the same compound, the TGI (SK-OV-3 ovarian) was over 100 µM, the TGI (SNB-19 CNS) was over 100 µM and the TGI (K-562 leukemia) was over 100 µM. For the same compound, the TGI (SN12C renal) was over 100 µM, the TGI (MDA-MB-435) was over 100 µM and the TGI (A549 NSCLC) was over 100 µM. The TGI (SK-MEL-5 melanoma) was over 100 µM, the TGI (IGROV1 ovarian) was over 100 µM and the TGI (HOP-62 NSCLC) was over 100 µM. It also gave a TGI (NCI/ADR-RES ovarian) of over 100 µM and a TGI (MDA-N) of over 100 µM.
